Experimental data reported in US9738634B2, “Heterocyclic amide compound and herbicide” (SYNGENTA PARTICIPATIONS AG, priority 2013, dated 2017).

Tests used:
Assay type in all cases: in vivo
barnyard grass [1] = assay: Test Example 1: weedkilling efficacy, preemergent weed treatment in the submerged state; A: barnyard grass; settings: treatment dosage 252 g/ha
In short: (§1)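 Pots of alluvial soil were flooded to a 4 cm depth. Mixed weed seeds were sown and 2.5 leaf-stage rice seedlings transplanted. On sowing day, water-diluted emulsion was applied to the water surface (dose in g/ha). After 3 weeks at 25–30 °C, effects were rated.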

bulrush [2] = assay: Test Example 1: weedkilling efficacy, preemergent weed treatment in the submerged state; B: bulrush; settings: treatment dosage 252 g/ha
In short: as §1

oval-leafed pondweed [3] = assay: Test Example 1: weedkilling efficacy, preemergent weed treatment in the submerged state; C: oval-leafed pondweed; settings: treatment dosage 252 g/ha
In short: as §1

transplanted rice = assay: Test Example 1: preemergent weed treatment in the submerged state, effect on crop; a: transplanted rice; settings: treatment dosage 252 g/ha
In short: as §1

barnyard grass [4] = assay: Test Example 2: weedkilling efficacy, growth period weed treatment in the submerged state; A: barnyard grass; settings: treatment dosage 252 g/ha
In short: (§2)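 Weeds treated at the 1-2 leaf stage by application of diluted emulsion onto floodwater (4 cm depth, alluvial soil) at specified g/ha. Grown in greenhouse at 25 to 30° C; herbicidal effect rated three weeks after treatment.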

bulrush [5] = assay: Test Example 2: weedkilling efficacy, growth period weed treatment in the submerged state; B: bulrush; settings: treatment dosage 252 g/ha
In short: as §2

oval-leafed pondweed [6] = assay: Test Example 2: weedkilling efficacy, growth period weed treatment in the submerged state; C: oval-leafed pondweed; settings: treatment dosage 252 g/ha
In short: as §2

crabgrass [7] = assay: Test Example 3: weedkilling efficacy through soil treatment; D: crabgrass; settings: treatment dosage 315 g/ha
In short: (§3)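 Crop and weed responses were judged three weeks after a uniform surface spray of the water-diluted emulsion at the given g/ha rate. Seeds sat beneath about 1.5 cm of sterilized diluvial soil, and boxes stood in a greenhouse at 25 to 30° C.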

green foxtail [8] = assay: Test Example 3: weedkilling efficacy through soil treatment; E: green foxtail; settings: treatment dosage 315 g/ha
In short: as §3

wild oat = assay: Test Example 3: weedkilling efficacy through soil treatment; G: wild oat; settings: treatment dosage 315 g/ha
In short: as §3

black-grass [9] = assay: Test Example 3: weedkilling efficacy through soil treatment; H: black-grass; settings: treatment dosage 315 g/ha
In short: as §3

Italian ryegrass [10] = assay: Test Example 3: weedkilling efficacy through soil treatment; I: Italian ryegrass; settings: treatment dosage 315 g/ha
In short: as §3

Indian mallow [11] = assay: Test Example 3: weedkilling efficacy through soil treatment; K: Indian mallow; settings: treatment dosage 315 g/ha
In short: as §3

redroot pigweed [12] = assay: Test Example 3: weedkilling efficacy through soil treatment; L: redroot pigweed; settings: treatment dosage 315 g/ha
In short: as §3

fig-leafed goosefoot [13] = assay: Test Example 3: weedkilling efficacy through soil treatment; M: fig-leafed goosefoot; settings: treatment dosage 315 g/ha
In short: as §3

chickweed [14] = assay: Test Example 3: weedkilling efficacy through soil treatment; N: chickweed; settings: treatment dosage 315 g/ha
In short: as §3

birds-eye speedwell [15] = assay: Test Example 3: weedkilling efficacy through soil treatment; p: birds-eye speedwell; settings: treatment dosage 315 g/ha
In short: as §3

directly sown rice [16] = assay: Test Example 3: soil treatment, effect on crop; b: directly sown rice; settings: treatment dosage 315 g/ha
In short: as §3

corn [17] = assay: Test Example 3: soil treatment, effect on crop; c: corn; settings: treatment dosage 315 g/ha
In short: as §3

soybean [18] = assay: Test Example 3: soil treatment, effect on crop; d: soybean; settings: treatment dosage 315 g/ha
In short: as §3

wheat [19] = assay: Test Example 3: soil treatment, effect on crop; e: wheat; settings: treatment dosage 315 g/ha
In short: as §3

beet [20] = assay: Test Example 3: soil treatment, effect on crop; f: beet; settings: treatment dosage 315 g/ha
In short: as §3

crabgrass [21] = assay: Test Example 4: weedkilling efficacy by foliar treatment; D: crabgrass; settings: treatment dosage 315 g/ha
In short: (§4)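 Seeds are spot-sown into sterilized diluvial soil and covered with about 1.5 cm of soil. After 14 days' greenhouse growth at 25 to 30° C, plants are sprayed on stems and leaves with diluted emulsion at the stated g/ha rate, then scored at 3 weeks.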

green foxtail [22] = assay: Test Example 4: weedkilling efficacy by foliar treatment; E: green foxtail; settings: treatment dosage 315 g/ha
In short: as §4

black-grass [23] = assay: Test Example 4: weedkilling efficacy by foliar treatment; H: black-grass; settings: treatment dosage 315 g/ha
In short: as §4

Italian ryegrass [24] = assay: Test Example 4: weedkilling efficacy by foliar treatment; I: Italian ryegrass; settings: treatment dosage 315 g/ha
In short: as §4

Indian mallow [25] = assay: Test Example 4: weedkilling efficacy by foliar treatment; K: Indian mallow; settings: treatment dosage 315 g/ha
In short: as §4

redroot pigweed [26] = assay: Test Example 4: weedkilling efficacy by foliar treatment; L: redroot pigweed; settings: treatment dosage 315 g/ha
In short: as §4

fig-leafed goosefoot [27] = assay: Test Example 4: weedkilling efficacy by foliar treatment; M: fig-leafed goosefoot; settings: treatment dosage 315 g/ha
In short: as §4

chickweed [28] = assay: Test Example 4: weedkilling efficacy by foliar treatment; N: chickweed; settings: treatment dosage 315 g/ha
In short: as §4

catchweed = assay: Test Example 4: weedkilling efficacy by foliar treatment; O: catchweed; settings: treatment dosage 315 g/ha
In short: as §4

birds-eye speedwell [29] = assay: Test Example 4: weedkilling efficacy by foliar treatment; p: birds-eye speedwell; settings: treatment dosage 315 g/ha
In short: as §4

directly sown rice [30] = assay: Test Example 4: foliar treatment, effect on crop; b: directly sown rice; settings: treatment dosage 315 g/ha
In short: as §4

corn [31] = assay: Test Example 4: foliar treatment, effect on crop; c: corn; settings: treatment dosage 315 g/ha
In short: as §4

soybean [32] = assay: Test Example 4: foliar treatment, effect on crop; d: soybean; settings: treatment dosage 315 g/ha
In short: as §4

wheat [33] = assay: Test Example 4: foliar treatment, effect on crop; e: wheat; settings: treatment dosage 315 g/ha
In short: as §4

beet [34] = assay: Test Example 4: foliar treatment, effect on crop; f: beet; settings: treatment dosage 315 g/ha
In short: as §4

Compound	A (barnyard grass) weedkilling efficacy grade (barnyard grass [1])	B (bulrush) weedkilling efficacy grade (bulrush [2])	C (oval-leafed pondweed) weedkilling efficacy grade (oval-leafed pondweed [3])	a (transplanted rice) effect on crop grade (transplanted rice)	A (barnyard grass) weedkilling efficacy grade (barnyard grass [4])	B (bulrush) weedkilling efficacy grade (bulrush [5])	C (oval-leafed pondweed) weedkilling efficacy grade (oval-leafed pondweed [6])	D (crabgrass) weedkilling efficacy grade (crabgrass [7])	E (green foxtail) weedkilling efficacy grade (green foxtail [8])	G (wild oat) weedkilling efficacy grade (wild oat)	H (black-grass) weedkilling efficacy grade (black-grass [9])	I (Italian ryegrass) weedkilling efficacy grade (Italian ryegrass [10])	K (Indian mallow) weedkilling efficacy grade (Indian mallow [11])	L (redroot pigweed) weedkilling efficacy grade (redroot pigweed [12])	M (fig-leafed goosefoot) weedkilling efficacy grade (fig-leafed goosefoot [13])	N (chickweed) weedkilling efficacy grade (chickweed [14])	P (birds-eye speedwell) weedkilling efficacy grade (birds-eye speedwell [15])	b (directly sown rice) effect on crop grade (directly sown rice [16])	c (corn) effect on crop grade (corn [17])	d (soybean) effect on crop grade (soybean [18])	also measured
CC1=C(c2ccsc2)C(=O)N(C(C)(C)C(=O)Nc2cccc(Br)n2)CO1 [B-2-06]	5 (weed kill ratio 90% or more, (practically complete withering))	5 (weed kill ratio 90% or more, (practically complete withering))	5 (weed kill ratio 90% or more, (practically complete withering))	4 (weed kill ratio 70% or more, less than 90%)	5 (weed kill ratio 90% or more, (practically complete withering))	5 (weed kill ratio 90% or more, (practically complete withering))	5 (weed kill ratio 90% or more, (practically complete withering))	5 (weed kill ratio 90% or more, (practically complete withering))	5 (weed kill ratio 90% or more, (practically complete withering))	5 (weed kill ratio 90% or more, (practically complete withering))	5 (weed kill ratio 90% or more, (practically complete withering))	5 (weed kill ratio 90% or more, (practically complete withering))	4 (weed kill ratio 70% or more, less than 90%)	5 (weed kill ratio 90% or more, (practically complete withering))	5 (weed kill ratio 90% or more, (practically complete withering))	4 (weed kill ratio 70% or more, less than 90%)	5 (weed kill ratio 90% or more, (practically complete withering))	5 (weed kill ratio 90% or more, (practically complete withering))	0 (weed kill ratio 5% or less (practically no effect))	2 (weed kill ratio 20% or more, less than 40%)	e (wheat) effect on crop grade (wheat [19]): 5 (weed kill ratio 90% or more, (practically complete withering)); f (beet) effect on crop grade (beet [20]): 5 (weed kill ratio 90% or more, (practically complete withering)); D (crabgrass) weedkilling efficacy grade (crabgrass [21]): 5 (weed kill ratio 90% or more, (practically complete withering)); E (green foxtail) weedkilling efficacy grade (green foxtail [22]): 5 (weed kill ratio 90% or more, (practically complete withering)); H (black-grass) weedkilling efficacy grade (black-grass [23]): 5 (weed kill ratio 90% or more, (practically complete withering)); I (Italian ryegrass) weedkilling efficacy grade (Italian ryegrass [24]): 5 (weed kill ratio 90% or more, (practically complete withering)); K (Indian mallow) weedkilling efficacy grade (Indian mallow [25]): 3 (weed kill ratio 40% or more, less than 70%); L (redroot pigweed) weedkilling efficacy grade (redroot pigweed [26]): 5 (weed kill ratio 90% or more, (practically complete withering)); M (fig-leafed goosefoot) weedkilling efficacy grade (fig-leafed goosefoot [27]): 4 (weed kill ratio 70% or more, less than 90%); N (chickweed) weedkilling efficacy grade (chickweed [28]): 4 (weed kill ratio 70% or more, less than 90%); O (catchweed) weedkilling efficacy grade (catchweed): 4 (weed kill ratio 70% or more, less than 90%); P (birds-eye speedwell) weedkilling efficacy grade (birds-eye speedwell [29]): 5 (weed kill ratio 90% or more, (practically complete withering)); b (directly sown rice) effect on crop grade (directly sown rice [30]): 5 (weed kill ratio 90% or more, (practically complete withering)); c (corn) effect on crop grade (corn [31]): 1 (weed kill ratio 5% or more, less than 20%); d (soybean) effect on crop grade (soybean [32]): 4 (weed kill ratio 70% or more, less than 90%); e (wheat) effect on crop grade (wheat [33]): 4 (weed kill ratio 70% or more, less than 90%); f (beet) effect on crop grade (beet [34]): 4 (weed kill ratio 70% or more, less than 90%)
CC1=C(c2ccsc2)C(=O)N(C(C)(C)C(=O)Nc2nc(C(C)C)ns2)CO1 [B-1-03]	5 (weed kill ratio 90% or more, (practically complete withering))	5 (weed kill ratio 90% or more, (practically complete withering))	5 (weed kill ratio 90% or more, (practically complete withering))	3 (weed kill ratio 40% or more, less than 70%)	5 (weed kill ratio 90% or more, (practically complete withering))	5 (weed kill ratio 90% or more, (practically complete withering))	5 (weed kill ratio 90% or more, (practically complete withering))	5 (weed kill ratio 90% or more, (practically complete withering))	5 (weed kill ratio 90% or more, (practically complete withering))	5 (weed kill ratio 90% or more, (practically complete withering))	5 (weed kill ratio 90% or more, (practically complete withering))	5 (weed kill ratio 90% or more, (practically complete withering))	4 (weed kill ratio 70% or more, less than 90%)	4 (weed kill ratio 70% or more, less than 90%)	5 (weed kill ratio 90% or more, (practically complete withering))	3 (weed kill ratio 40% or more, less than 70%)	5 (weed kill ratio 90% or more, (practically complete withering))	5 (weed kill ratio 90% or more, (practically complete withering))	0 (weed kill ratio 5% or less (practically no effect))	0 (weed kill ratio 5% or less (practically no effect))	e (wheat) effect on crop grade (wheat [19]): 3 (weed kill ratio 40% or more, less than 70%); f (beet) effect on crop grade (beet [20]): 3 (weed kill ratio 40% or more, less than 70%); D (crabgrass) weedkilling efficacy grade (crabgrass [21]): 4 (weed kill ratio 70% or more, less than 90%); E (green foxtail) weedkilling efficacy grade (green foxtail [22]): 4 (weed kill ratio 70% or more, less than 90%); H (black-grass) weedkilling efficacy grade (black-grass [23]): 5 (weed kill ratio 90% or more, (practically complete withering)); I (Italian ryegrass) weedkilling efficacy grade (Italian ryegrass [24]): 5 (weed kill ratio 90% or more, (practically complete withering)); K (Indian mallow) weedkilling efficacy grade (Indian mallow [25]): 4 (weed kill ratio 70% or more, less than 90%); L (redroot pigweed) weedkilling efficacy grade (redroot pigweed [26]): 4 (weed kill ratio 70% or more, less than 90%); M (fig-leafed goosefoot) weedkilling efficacy grade (fig-leafed goosefoot [27]): 5 (weed kill ratio 90% or more, (practically complete withering)); N (chickweed) weedkilling efficacy grade (chickweed [28]): 3 (weed kill ratio 40% or more, less than 70%); O (catchweed) weedkilling efficacy grade (catchweed): 3 (weed kill ratio 40% or more, less than 70%); P (birds-eye speedwell) weedkilling efficacy grade (birds-eye speedwell [29]): 4 (weed kill ratio 70% or more, less than 90%); b (directly sown rice) effect on crop grade (directly sown rice [30]): 4 (weed kill ratio 70% or more, less than 90%); c (corn) effect on crop grade (corn [31]): 2 (weed kill ratio 20% or more, less than 40%); d (soybean) effect on crop grade (soybean [32]): 4 (weed kill ratio 70% or more, less than 90%); e (wheat) effect on crop grade (wheat [33]): 0 (weed kill ratio 5% or less (practically no effect)); f (beet) effect on crop grade (beet [34]): 3 (weed kill ratio 40% or more, less than 70%)
